# Tests used:
# human PDE5 = biological target: T1, human PDE5 (Homo sapiens, UniProt O76074); experiment: Inhibition of PDE5 activity (modified SPA test, human platelet lysate); format: biochemical; details: PDE5-containing human platelet lysate, 0.5 μM cGMP substrate, 37° C.
# T1 construct: from tissue; host or cells: human platelets from fresh donor blood (10,000 g supernatant of sonified platelets)
# Summary of the method: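 Human platelet lysate (10,000 g supernatant) as PDE5 source; SPA with 0.5 μM cGMP plus [3H]cGMP tracer, 20 mM Tris pH 7.4, 5 mM Mg2+, 1 μM motapizone and 10 nM BAY-60-7550; 5 min preincubation at 37° C., 15 min reaction, stopped with SPA beads containing IBMX. IC50 by non-linear regression.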
SMILES,melting point [°C],IC50 (human PDE5) [µM]
"NC(=O)Nc1ccc(Cc2nc3c(c4c2[nH]c2ccccc24)C(=O)CCC3)cc1 [Example 76, [4-(1-Oxo-2,3,4,7-tetrahydro-1H-indolo[2,3-c]quinolin-6-ylmethyl)-phenyl]-urea]",232 to 234,0.0417
"COc1ccc(Cc2nc3c(c4c2[nH]c2ccccc24)CCC(C)(C)C3)cc1 [Example 77, 6-(4-Methoxy-benzyl)-3,3-dimethyl-2,3,4,7-tetrahydro-1H-indolo[2,3-c]quinoline]",158,0.00631
"COc1ccc(Cc2c3[nH]c4ccccc4c3c3c([n+]2[O-])CC(C)(C)CC3=O)cc1 [Example 78, 6-(4-Methoxy-benzyl)-3,3-dimethyl-5-oxy-2,3,4,7-tetrahydro-indolo[2,3-c]quinolin-1-one]",202,0.0155
"COc1ccc(Cc2nc3c(c4c2[nH]c2ccccc24)[C@@H](O)CC(C)(C)C3)cc1F [Example 79, (S)-6-(3-Fluoro-4-methoxy-benzyl)-3,3-dimethyl-2,3,4,7-tetrahydro-1H-indolo[2,3-c]quinolin-1-ol]",164 to 166,0.000794
"COc1ccc(Cc2nc3c(c4c2[nH]c2ccccc24)[C@H](O)CC(C)(C)C3)cc1 [Example 80, (R)-6-(4-Methoxy-benzyl)-3,3-dimethyl-2,3,4,7-tetrahydro-1H-indolo[2,3-c]quinolin-1-ol]",118 to 120,0.1
"COc1ccc(Cc2nc3c(c4c2[nH]c2ccccc24)[C@@H](O)CC(C)(C)C3)cc1 [Example 81, (S)-6-(4-Methoxy-benzyl)-3,3-dimethyl-2,3,4,7-tetrahydro-1H-indolo[2,3-c]quinolin-1-ol]",118 to 120,0.001

# More lines, now with the values ahead:
melting point [°C],IC50 (human PDE5) [µM],SMILES
164 to 166,0.0316,"COc1ccc(Cc2nc3c(c4c2[nH]c2ccccc24)[C@H](O)CC(C)(C)C3)cc1F [Example 82, (R)-6-(3-Fluoro-4-methoxy-benzyl)-3,3-dimethyl-2,3,4,7-tetrahydro-1H-indolo[2,3-c]quinolin-1-ol]"
124 to 127,0.0251,"COc1ccc(Cc2nc3c(c4c2[nH]c2ccccc24)[C@H](O)CCC3)cc1F [Example 83, (R)-6-(3-Fluoro-4-methoxy-benzyl)-2,3,4,7-tetrahydro-1H-indolo[2,3-c]quinolin-1-ol]"
129 to 131,0.398,"CC1(C)Cc2nc(Cc3cc(F)cc(F)c3)c3[nH]c4ccccc4c3c2[C@H](O)C1 [Example 84, (R)-6-(3,5-Difluoro-benzyl)-3,3-dimethyl-2,3,4,7-tetrahydro-1H-indolo[2,3-c]quinolin-1-ol]"
125 to 127,0.002,"COc1ccc(Cc2nc3c(c4c2[nH]c2ccccc24)[C@@H](O)CCC3)cc1F [Example 85, (S)-6-(3-Fluoro-4-methoxy-benzyl)-2,3,4,7-tetrahydro-1H-indolo[2,3-c]quinolin-1-ol]"
130 to 131,0.00316,"CC1(C)Cc2nc(Cc3cc(F)cc(F)c3)c3[nH]c4ccccc4c3c2[C@@H](O)C1 [Example 86, (S)-6-(3,5-Difluoro-benzyl)-3,3-dimethyl-2,3,4,7-tetrahydro-1H-indolo[2,3-c]quinolin-1-ol]"
123 to 126,0.00389,"CC1(C)Cc2nc(Cc3cccc(F)c3)c3[nH]c4ccccc4c3c2[C@@H](O)C1 [Example 93, (S)-6-(3-Fluoro-benzyl)-3,3-dimethyl-2,3,4,7-tetrahydro-1H-indolo[2,3-c]quinolin-1-ol]"
124 to 127,0.0151,"CC1(C)Cc2nc(Cc3cccc(Cl)c3)c3[nH]c4ccccc4c3c2[C@@H](O)C1 [Example 94, (S)-6-(3-Chloro-benzyl)-3,3-dimethyl-2,3,4,7-tetrahydro-1H-indolo[2,3-c]quinolin-1-ol]"

# — US20100120730A1, “6-BENZYL-2,3,4,7-TETRAHYDRO-INDOLO [2,3-C] QUINOLINE COMPOUNDS USEFUL AS PDE5 INHIBITORS” (NYCOMED GmbH, priority 2007, published 2010)
